# Laboratory results: patent US20230372427A1, “THE COMPOSITIONS OF PLANT INGREDIENTS AND HERBS AGAINST CORONAVIRUS” (priority 2022, published 2023)
# Tested on: wild-type SARS-CoV-2 pseudotyped lentivirus (WT-GFP-SARS-CoV-2-pseudotyped lentivirus)
# Assay: microbe, parasite or virus in culture
# Assay type: cell-based
# Details: HEK-293T, 72 h, read-out: inhibitory effect (viral entry), positive control
smiles,measurement,value
"CCN(CC)CCCC(C)Nc1ccnc2cc(Cl)ccc12 (stereo not shown) [chloroquine, Chloroquine]",inhibition at 0.5 µg/mL,~70%
